Data set [1] deals with NET (Homo sapiens, UniProt P23975). Description: Uptake inhibition assay, [3H]MPP+ uptake in HEK293 cells. In kind it is cell-based. Particulars: HEK293 cells, 0.02 μM [3H]MPP+; mean ± SD; read-out: IC50 ± SD, [3H]MPP+ uptake NET. Also noted: expressed in transfected cells.
Data set [2] concerns male Swiss CD-1 mice. Description: Core body temperature. Format: in vivo. Particulars: 10 mg/kg i.p., 22 ± 1 °C and 28 ± 1 °C, compared with MDMA and SDMA. How it is done:
(§1) Male Swiss CD-1 mice (Janvier, Le Genest, France), weighing 30–35 g and aged 6–8 weeks, were used for HLA, thigmotaxis, CPP, and core body temperature experiments. Animals were housed under temperature-controlled conditions (22 ± 1 °C) with a 12 h light/dark cycle and had free access to food and water (standard laboratory diet, Panlab SL, Barcelona, Spain). Doses for HLA, thigmotaxis, CPP, and core body temperature experiments were calculated based on the free base form of each compound. For HTR experiments, male C57BL/6J mice (6–8 weeks old) were obtained from Jackson Laboratories (Bar Harbor, ME, USA) and housed up to four per cage with a reversed light-cycle (lights on at 1900 h, off at 0700 h). Food and water were provided ad libitum, except during behavioral testing. Testing was conducted between 1000 and 1830 h. Doses for HTR experiments were calculated based on the respective salt forms of the compounds.
Changes in body temperature were measured by means of subcutaneously implanted temperature transponders (IPTT-300; Bio Medic Data Systems, Inc., DE, USA). Seven mice were used per group. […] Subsequently, core body temperature measures were taken for 1 h, every 10 min before administration, using a DAS-8007 Wireless Reader System (Bio Medic Data Systems, Inc.), to establish a baseline. […]

Data set [3] relates to male Swiss CD-1 mice. The data set can be described thus: Horizontal locomotor activity (HLA). In kind it is in vivo. Particulars: for effect on horizontal locomotor activity: 2.5, 10, 25 mg/kg i.p., 120 min, ceiling effect at 25 mg/kg. The procedure:
as §1
A habituation phase was performed to reduce the stress and novelty associated with handling and injection. During this phase, which lasted for two consecutive days, mice received an intraperitoneal (ip) saline injection and were immediately placed into a black Plexiglas Open Field (OF) arena (25 × 25 × 40 cm) under low-light conditions and white noise for 30 min. On the test day, their horizontal locomotor activity (HLA) was measured. […] HLA was video monitored for 2 h, and a specific tracking software (Smart 3.0 Panlab, Barcelona, Spain) was used to measure their total traveled distance (in cm). Center Versus Periphery: The thigmotactic effects of the test compounds, widely considered as anxiety-like effects, were assessed through an OF test. Each mouse was individually placed in the center of an open-field arena (25 cm length × 25 cm width × 40 cm height). The time spent, in seconds, in the center (8 × 8 cm) or the periphery of the arena was monitored for 2 h (Smart 3.0 Panlab, Barcelona, Spain).

Data set [4] has as its system male Swiss CD-1 mice. The data set can be described thus: Conditioned place preference (CPP). In kind it is in vivo. Particulars: for rewarding effects (CPP preference score): 10 mg/kg i.p., compared to saline; for CPP preference score: lowest dose tested. The procedure: as §1
For this experiment, an apparatus with two distinct compartments, differing in tactile and visual cues, connected by a central corridor, was used. The conditioned place preference (CPP) procedure consisted of three phases: preconditioning, conditioning, and postconditioning. In the preconditioning phase (day 0), mice were placed in the middle of the corridor and allowed to freely explore both compartments for 15 min. The time spent in each compartment was recorded and monitored using specific tracking software (Smart 3.0 Panlab, Barcelona, Spain). In the conditioning phase (day 1–day 8), access to the corridor was closed. […] On alternate days, , mice received a saline i.p. injection and were placed in the other compartment for 30 min. Mice in the control group received a saline injection in every session. The compartments and sessions in which the drug was administered were randomized. In the postconditioning phase (test day), the same conditions as the preconditioning phase were reinstated. A preference score was determined by calculating the difference in time spent in the drug-paired compartment between the post- and preconditioning phases.

The target in data set [5] is T1, human organic cation transporter 1 (OCT1) (Homo sapiens, UniProt O15245).
T1 sequence (O15245 1-554): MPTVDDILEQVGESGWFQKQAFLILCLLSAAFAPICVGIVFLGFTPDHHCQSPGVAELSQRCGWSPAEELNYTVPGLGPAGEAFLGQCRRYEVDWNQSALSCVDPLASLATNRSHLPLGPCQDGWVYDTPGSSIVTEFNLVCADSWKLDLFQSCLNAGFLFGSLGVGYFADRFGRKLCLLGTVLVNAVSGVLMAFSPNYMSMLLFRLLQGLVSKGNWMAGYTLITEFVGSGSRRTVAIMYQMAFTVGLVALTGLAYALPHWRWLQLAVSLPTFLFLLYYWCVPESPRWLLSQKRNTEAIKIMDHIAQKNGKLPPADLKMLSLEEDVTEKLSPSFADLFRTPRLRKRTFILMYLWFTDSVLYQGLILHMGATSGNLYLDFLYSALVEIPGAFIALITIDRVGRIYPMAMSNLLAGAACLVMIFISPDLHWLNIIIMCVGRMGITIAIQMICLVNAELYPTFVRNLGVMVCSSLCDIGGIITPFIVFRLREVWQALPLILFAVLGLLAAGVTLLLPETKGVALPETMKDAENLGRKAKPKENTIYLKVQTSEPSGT
Description: Uptake inhibition assay, [3H]MPP+ uptake in HEK293 cells.

In data set [6] the test system is male Swiss CD-1 mice. Description: Open field test (thigmotaxis). Format: in vivo. The note with it: 10 mg/kg i.p., vs saline. The procedure: Male Swiss CD-1 mice (Janvier, Le Genest, France), weighing 30–35 g and aged 6–8 weeks, were used for HLA, thigmotaxis, CPP, and core body temperature experiments. Animals were housed under temperature-controlled conditions (22 ± 1 °C) with a 12 h light/dark cycle and had free access to food and water (standard laboratory diet, Panlab SL, Barcelona, Spain). Doses for HLA, thigmotaxis, CPP, and core body temperature experiments were calculated based on the free base form of each compound. […] Doses for HTR experiments were calculated based on the respective salt forms of the compounds.
A habituation phase was performed to reduce the stress and novelty associated with handling and injection. […] On the test day, their horizontal locomotor activity (HLA) was measured. […] HLA was video monitored for 2 h, and a specific tracking software (Smart 3.0 Panlab, Barcelona, Spain) was used to measure their total traveled distance (in cm). Center Versus Periphery: The thigmotactic effects of the test compounds, widely considered as anxiety-like effects, were assessed through an OF test. […] The time spent, in seconds, in the center (8 × 8 cm) or the periphery of the arena was monitored for 2 h (Smart 3.0 Panlab, Barcelona, Spain).

Sequence of NET (P23975 whole entry): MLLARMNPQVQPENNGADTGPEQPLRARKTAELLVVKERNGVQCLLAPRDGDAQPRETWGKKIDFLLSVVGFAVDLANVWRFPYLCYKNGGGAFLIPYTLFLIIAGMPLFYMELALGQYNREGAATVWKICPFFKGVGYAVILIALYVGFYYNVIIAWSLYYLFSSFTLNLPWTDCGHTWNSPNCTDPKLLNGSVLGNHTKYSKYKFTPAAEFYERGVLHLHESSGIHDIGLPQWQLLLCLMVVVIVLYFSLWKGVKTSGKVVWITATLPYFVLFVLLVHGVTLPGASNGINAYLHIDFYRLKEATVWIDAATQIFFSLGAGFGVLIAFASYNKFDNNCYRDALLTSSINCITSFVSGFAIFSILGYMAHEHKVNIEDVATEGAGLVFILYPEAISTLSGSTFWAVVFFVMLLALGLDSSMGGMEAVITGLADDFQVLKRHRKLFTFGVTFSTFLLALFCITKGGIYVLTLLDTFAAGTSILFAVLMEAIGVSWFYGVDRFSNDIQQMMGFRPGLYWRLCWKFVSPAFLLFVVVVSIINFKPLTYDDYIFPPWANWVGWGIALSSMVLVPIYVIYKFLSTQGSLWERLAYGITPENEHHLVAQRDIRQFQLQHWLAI

By IC50 is commonly meant the midpoint of a concentration-inhibition curve. Regarding `CC(N)Cc1ccc2c(c1)SCO2` (stereo not shown) [SDA, 1-(1,3-benzoxathiol-5-yl)propan-2-amine], in data set [1], the IC50 was 850 ± 240 nM. Moreover, the “core body temperature changes” value in data set [2] is “significantly increased and prolonged core temperature changes”. For the same compound, the “efficacy at inducing locomotion, in comparison to SDMA and MDMA” value in data set [3] (10 mg/kg i.p.) is listed as “significantly higher efficacy”. Also, the “effect on horizontal locomotor activity” value in data set [3] was “induced hyperlocomotion”. In data set [4], the “rewarding effects (CPP preference score)” value is “neither SDA nor SDMA induced significant rewarding effects” and the CPP preference score entry is “significant preference score”. In data set [5], this compound had an IC50 of 3650 ± 270 nM. Moreover, the “time spent in the center of the arena (thigmotaxis)” value in data set [6] is reported as “significantly decreased the time spent in the center of the arena”.

For the compound `CNC(C)Cc1ccc2c(c1)SCO2` (stereo not shown) [SDMA, 1-(1,3-benzoxathiol-5-yl)-N-methylpropan-2-amine], in data set [1], the IC50 turned out to be 770 ± 390 nM. Moreover, the “effect on horizontal locomotor activity” value in data set [3] is “induced hyperlocomotion”. Besides, in data set [4], the “rewarding effects (CPP preference score)” value was “neither SDA nor SDMA induced significant rewarding effects” and the CPP preference score entry is listed as “positive preference score at the same dose, it did not reach significance”. In data set [5], this compound gave a 50% inhibitory concentration (IC50) of 4390 ± 2840 nM.
